The numbers were not newly measured in article PMC3979036, “Autocrine IGF-I/insulin receptor axis compensates for inhibition of AKT in ER-positive breast cancer cells with resistance to estrogen deprivation” (Breast Cancer Research : BCR, 2013), which cites them from elsewhere.

This series deals with InsR (insulin receptor) (Homo sapiens, UniProt P06213). In words: autophosphorylation of human InsR in transfected CHO-T cells (AstraZeneca unpublished data). The class given is cell-based.

Molecules are shown by their SMILES.

Sequence of InsR (insulin receptor) (P06213 28-758): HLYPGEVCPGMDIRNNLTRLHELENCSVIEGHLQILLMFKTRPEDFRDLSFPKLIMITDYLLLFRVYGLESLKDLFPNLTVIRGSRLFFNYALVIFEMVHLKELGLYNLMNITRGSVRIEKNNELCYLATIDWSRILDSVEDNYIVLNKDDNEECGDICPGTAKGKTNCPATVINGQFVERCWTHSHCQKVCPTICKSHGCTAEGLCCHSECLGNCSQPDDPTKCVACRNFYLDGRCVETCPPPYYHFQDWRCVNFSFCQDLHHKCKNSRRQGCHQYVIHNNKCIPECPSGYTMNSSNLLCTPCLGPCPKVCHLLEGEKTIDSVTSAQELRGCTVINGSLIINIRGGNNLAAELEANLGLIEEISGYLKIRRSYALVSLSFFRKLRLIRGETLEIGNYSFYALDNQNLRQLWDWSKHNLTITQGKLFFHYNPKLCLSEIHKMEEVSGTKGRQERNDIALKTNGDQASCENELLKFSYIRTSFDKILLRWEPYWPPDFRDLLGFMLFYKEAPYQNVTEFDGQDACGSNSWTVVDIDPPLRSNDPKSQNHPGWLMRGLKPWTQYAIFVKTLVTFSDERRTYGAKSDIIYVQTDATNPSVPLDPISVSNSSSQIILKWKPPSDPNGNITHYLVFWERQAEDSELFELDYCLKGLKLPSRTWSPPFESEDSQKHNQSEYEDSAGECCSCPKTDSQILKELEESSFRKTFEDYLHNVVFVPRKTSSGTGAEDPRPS
Sequence of InsR (insulin receptor) (P06213 763-1382): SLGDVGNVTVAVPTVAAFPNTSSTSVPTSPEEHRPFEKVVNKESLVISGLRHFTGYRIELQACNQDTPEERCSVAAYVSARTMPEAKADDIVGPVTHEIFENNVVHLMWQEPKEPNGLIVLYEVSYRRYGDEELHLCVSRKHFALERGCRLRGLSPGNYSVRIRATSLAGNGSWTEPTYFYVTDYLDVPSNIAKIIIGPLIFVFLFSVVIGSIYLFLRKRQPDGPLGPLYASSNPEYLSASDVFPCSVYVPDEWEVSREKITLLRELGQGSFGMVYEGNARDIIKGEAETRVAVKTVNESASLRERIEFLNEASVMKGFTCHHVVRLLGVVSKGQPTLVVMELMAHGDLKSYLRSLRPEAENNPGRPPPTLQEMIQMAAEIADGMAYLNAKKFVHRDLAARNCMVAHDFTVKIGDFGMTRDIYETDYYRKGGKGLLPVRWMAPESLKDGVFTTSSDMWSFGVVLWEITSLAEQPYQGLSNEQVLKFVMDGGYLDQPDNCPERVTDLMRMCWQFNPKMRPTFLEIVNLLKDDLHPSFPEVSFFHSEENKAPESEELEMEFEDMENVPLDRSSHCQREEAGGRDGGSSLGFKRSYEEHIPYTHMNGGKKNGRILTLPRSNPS

One may read the IC50 as the concentration needed to halve the response being measured. Take `Cc1nn(C2CCN(C(=O)[C@@H](C)O)CC2)c(C)c1Nc1ncc(Cl)c(-c2cnn3ccccc23)n1` [AZD9362]: the IC50 was 186 nM.
